Tested on: normal human dermal fibroblasts (NHDF)
Test: Gene expression in NHDF, full transcriptome analysis with Affymetrix U219 microarray
Format: cell-based
Conditions: NHDF
[1] = relative expression adjusted to detection limit (<20), 10 mg/ml, 24 h

Structure (SMILES): CC(=O)N(CCCC[C@H](N)C(=O)O)CC(F)(F)[C@]1(O)O[C@H](CO)[C@H](O)[C@H](O)[C@H]1O [Compound 4]
- effect of treatment of NHDF on lipid synthesis (transcriptional): up regulation of lipids synthesis, including fatty acids, cholesterol or ceramides
- Fold change, CYP51A1///LRRD1 (10 mg/ml, 24 h, vs control): 2.38
- Fold change, DHCR7 (10 mg/ml, 24 h, vs control): 3.24
- Fold change, HMGCS1 (10 mg/ml, 24 h, vs control): 2.39
- Fold change, HSD17B7 (10 mg/ml, 24 h, vs control): 2.43
- Fold change, MVD (10 mg/ml, 24 h, vs control): 2.77
- Fold change, SC5D (10 mg/ml, 24 h, vs control): 2.06
- Fold change, SREBF1 (10 mg/ml, 24 h, vs control): 3.15
- Fold change, POR (10 mg/ml, 24 h, vs control, Affymetrix probe set 11716114_x_at): 3.68
- Fold change, G6PD (10 mg/ml, 24 h, vs control, Affymetrix probe set 11716292_a_at): 2.53
- Fold change, G6PD (10 mg/ml, 24 h, vs control, Affymetrix probe set 11716293_x_at): 2.48
- Fold change, INSIG1 (10 mg/ml, 24 h, vs control, Affymetrix probe set 11716338_a_at): 2.73
- Fold change, INSIG1 (10 mg/ml, 24 h, vs control, Affymetrix probe set 11716339_a_at): 3.73
- Fold change, NSMAF (10 mg/ml, 24 h, vs control, Affymetrix probe set 11717214_s_at): 2.01
- Fold change, LSS (10 mg/ml, 24 h, vs control, Affymetrix probe set 11717620_a_at): 2.14
- Fold change, ASAH1 (10 mg/ml, 24 h, vs control, Affymetrix probe set 11717722_s_at): 2.54
- Fold change, EBP (10 mg/ml, 24 h, vs control, Affymetrix probe set 11717859_a_at): 2.48
- Fold change, COL4A3BP (10 mg/ml, 24 h, vs control, Affymetrix probe set 11721537_a_at): 2.46
- Fold change, COL4A3BP (10 mg/ml, 24 h, vs control, Affymetrix probe set 11721538_a_at): 2.19
- Fold change, HTRA2 (10 mg/ml, 24 h, vs control, Affymetrix probe set 11726630_a_at): 2.06
- Fold change, LSS (10 mg/ml, 24 h, vs control, Affymetrix probe set 11731324_a_at): 3.13
- Fold change, CLN3 (10 mg/ml, 24 h, vs control, Affymetrix probe set 11731408_x_at): 3.73
- Fold change, NSMAF (10 mg/ml, 24 h, vs control, Affymetrix probe set 11740559_a_at): 2.34
- Fold change, NSMAF (10 mg/ml, 24 h, vs control, Affymetrix probe set 11740560_x_at): 2.19
- Fold change, ASAH1 (10 mg/ml, 24 h, vs control, Affymetrix probe set 11740580_at): 2.44
- Fold change, ASAH1 (10 mg/ml, 24 h, vs control, Affymetrix probe set 11740581_s_at): 2.41
- Fold change, ASAH1 (10 mg/ml, 24 h, vs control, Affymetrix probe set 11740582_a_at): 3.46
- Fold change, ASAH1 (10 mg/ml, 24 h, vs control, Affymetrix probe set 11743547_a_at): 3.97
- Fold change, TM7SF2 (10 mg/ml, 24 h, vs control, Affymetrix probe set 11744179_x_at): 2.10
- Fold change, CLN3 (10 mg/ml, 24 h, vs control, Affymetrix probe set 11744874_x_at): 3.98
- Fold change, POR (10 mg/ml, 24 h, vs control, Affymetrix probe set 11746973_x_at): 3.22
- Fold change, CLN3 (10 mg/ml, 24 h, vs control, Affymetrix probe set 11747203_x_at): 2.97
- Fold change, PPP2R1A (10 mg/ml, 24 h, vs control, Affymetrix probe set 11747739_a_at): 2.33
- Fold change, PPP2R1A (10 mg/ml, 24 h, vs control, Affymetrix probe set 11747740_x_at): 2.66
- Fold change, TM7SF2 (10 mg/ml, 24 h, vs control, Affymetrix probe set 11748279_s_at): 2.46
- Fold change, POR (10 mg/ml, 24 h, vs control, Affymetrix probe set 11748368_x_at): 3.37
- Fold change, CLN3 (10 mg/ml, 24 h, vs control, Affymetrix probe set 11748869_a_at): 3.24
- Fold change, CLN3 (10 mg/ml, 24 h, vs control, Affymetrix probe set 11748870_x_at): 3.33
- Fold change, EBP (10 mg/ml, 24 h, vs control, Affymetrix probe set 11749332_x_at): 2.22
- Fold change, COL4A3BP (10 mg/ml, 24 h, vs control, Affymetrix probe set 11749683_a_at): 2.62
- Fold change, DHCR24 (10 mg/ml, 24 h, vs control, Affymetrix probe set 11751337_a_at): 2.11
- Fold change, DHCR24 (10 mg/ml, 24 h, vs control, Affymetrix probe set 11751338_x_at): 2.31
- Fold change, PLA2G15 (10 mg/ml, 24 h, vs control, Affymetrix probe set 11751383_a_at): 2.52
- Fold change, G6PD (10 mg/ml, 24 h, vs control, Affymetrix probe set 11752486_a_at): 3.12
- Fold change, CLN3 (10 mg/ml, 24 h, vs control, Affymetrix probe set 11753053_x_at): 3.08
- Fold change, PLA2G15 (10 mg/ml, 24 h, vs control, Affymetrix probe set 11755396_a_at): 3.26
- Fold change, CLN3 (10 mg/ml, 24 h, vs control, Affymetrix probe set 11756016_x_at): 2.80
- Fold change, HTRA2 (10 mg/ml, 24 h, vs control, Affymetrix probe set 11756421_x_at): 2.15
- Fold change, POR (10 mg/ml, 24 h, vs control, Affymetrix probe set 11757517_x_at): 2.16
- Fold change, COL4A3BP (10 mg/ml, 24 h, vs control, Affymetrix probe set 11758133_s_at): 2.04
- REadj2, CYP51A1///LRRD1 [1]: 2314.08
- REadj2, DHCR7 [1]: 1204.72
- REadj2, HMGCS1 [1]: 1284.34
- REadj2, HSD17B7 [1]: 166.42
- REadj2, MVD [1]: 530.60
- REadj2, SC5D [1]: 537.03
- REadj2, SREBF1 [1]: 456.21
- REadj2, G6PD (relative expression adjusted to detection limit (<20), 10 mg/ml, 24 h, Affymetrix probe set 11716292_a_at): 438.70
- REadj2, G6PD (relative expression adjusted to detection limit (<20), 10 mg/ml, 24 h, Affymetrix probe set 11716293_x_at): 290.47
- REadj2, INSIG1 (relative expression adjusted to detection limit (<20), 10 mg/ml, 24 h, Affymetrix probe set 11716338_a_at): 1272.02
- REadj2, INSIG1 (relative expression adjusted to detection limit (<20), 10 mg/ml, 24 h, Affymetrix probe set 11716339_a_at): 1678.67
- REadj2, EBP (relative expression adjusted to detection limit (<20), 10 mg/ml, 24 h, Affymetrix probe set 11717859_a_at): 1008.77
- REadj2, HTRA2 (relative expression adjusted to detection limit (<20), 10 mg/ml, 24 h, Affymetrix probe set 11726630_a_at): 252.64
- REadj2, TM7SF2 (relative expression adjusted to detection limit (<20), 10 mg/ml, 24 h, Affymetrix probe set 11744179_x_at): 62.22
- REadj2, TM7SF2 (relative expression adjusted to detection limit (<20), 10 mg/ml, 24 h, Affymetrix probe set 11748279_s_at): 100.08
- REadj2, EBP (relative expression adjusted to detection limit (<20), 10 mg/ml, 24 h, Affymetrix probe set 11749332_x_at): 812.08
- REadj2, DHCR24 (relative expression adjusted to detection limit (<20), 10 mg/ml, 24 h, Affymetrix probe set 11751337_a_at): 176.26
- REadj2, DHCR24 (relative expression adjusted to detection limit (<20), 10 mg/ml, 24 h, Affymetrix probe set 11751338_x_at): 345.60
- REadj2, PLA2G15 (relative expression adjusted to detection limit (<20), 10 mg/ml, 24 h, Affymetrix probe set 11751383_a_at): 103.53
- REadj2, G6PD (relative expression adjusted to detection limit (<20), 10 mg/ml, 24 h, Affymetrix probe set 11752486_a_at): 220.41
- REadj2, PLA2G15 (relative expression adjusted to detection limit (<20), 10 mg/ml, 24 h, Affymetrix probe set 11755396_a_at): 177.48
- REadj2, HTRA2 (relative expression adjusted to detection limit (<20), 10 mg/ml, 24 h, Affymetrix probe set 11756421_x_at): 227.59

Source: patent US20220267380A1, “Glycopeptides Increasing Lipid Synthesis” (TFCHEM, priority 2019, published 2022)
